Measurements from US20100009917A1, “Modulating Enzymatic Processes by Addition of Diolcontaining Substances” (priority 2007, published 2010).
Like-named read-outs stand apart in the source and are kept apart here.

Target: T1, TGase MTG P2 (Streptomyces mobaraensis, UniProt P81453)
T1 construct: made in house; host or cells: E. coli
Assay type: biochemical, Streptovercilium mobaraense
Protocol: TGase: • (a) TGase Activa WM from Ajinomoto, 60 mg/ml in 20 mM Phosphate buffer pH 8.5. The Activa WM enzyme from Streptoverticillium mobaraense is formulated under dry form in maltodextrins and contains 1% w/w of protein) (6.7 μl)); or • (b) TGase MTG P2 from Streptovercilium mobaraense expressed in soluble form using E. coli as expression system was formulated in 20 mM NaPhosphate buffer, pH 6.0, with 2 mM DTT and 5 w/v % maltodextrin. The concentration of the enzyme was between 0.7 and 4.5 mg/ml.
Capillary electrophoresis (CE) was carried out using an Agilent Technologies 3D-CE system (Agilent Technologies). Data acquisition and signal processing were performed using Agilent Technologies 3DCE ChemStation. The capillary was a 64.5 cm (56.0 cm efficient length) 50 μm i.d. “Extended Light Path Capillary” from Agilent. UV detection was performed at 200 nm (16 nm Bw, Reference 380 nm and 50 nm Bw). The running electrolyte was phosphate buffer 50 mM pH7.0. The capillary was conditioned with 0.1M NaOH for 3 min, then with Milli-Q water for 2 min and with the electrolyte for 3 min.
After each run, the capillary was flushed with milli-Q water for 2 min, then with phosphoric acid for 2 min, and with milli-Q water for 2 min. The hydrodynamic injection was done at 50 mbar for 4.0 s. The voltage was +25 kV. The capillary temperature was 30 C and the runtime was 10.5 min.
To a 1M solution of […] in triethanolamine 20 mM pH8.6 buffer (14 μl) was added triethanolamine 20 mM pH8.6 buffer (20.6 μl), ethylene glycol (53.6 μl) (40% w/v)), and a solution of human growth hormone (50 mg/ml) in triethanolamine 20 mM pH8.6 buffer (40 μl). The reaction was started by the addition of the TGase MTG P2 solution (0.35 mg/ml, 5.8 μl). The reaction mixture was incubated at ambient temperature and followed on CE.
(§1) The reaction was carried out in an analogous manner to the above method using the following concentrations: • [hGH]=0.67 mM (14.9 mg/ml final concentration) • [1,3-diamino 2-propanol]=300 mM • Buffer: 20 mM Triethanolamine pH 8.6 • +/−Ethylene glycol 40% (v/v) • [TGase MTG P2]=0.39 μM
The reaction was carried out in an analogous manner to the above method using the following concentrations: • [hGH]=0.67 mM (14.9 mg/ml final concentration) • [1,3-diamino 2-propanol]=300 mM • Buffer: 20 mM Triethanolamine pH 8.6 • +/−Ethylene glycol 10-40% (v/v) • [TGase MTG P2]=0.39 μM
The reaction was carried out in an analogous manner to the above method using the following concentrations: • [hGH]=0.67 mM (14.9 mg/ml final concentration) • [1,3-diamino 2-propanol]=300 mM • Buffer: 20 mM Triethanolamine pH 8.6 • +/−Ethylene glycol 40% (v/v) • [TGase MTG P2]=0.39 μM or 0.16 μM
as §1, with “out with ethylene glycol, glycerol, propylene glycol and 1,3 propanediol” for “out”, “+/−enhancing compound 7.18 M” for “+/−Ethylene glycol 40% (v/v)”
The reaction was carried out with glycerol in an analogous manner to the above method, except for the fact that more enzyme was added after five hours of reaction time. The reaction used the following concentrations: • [hGH]=0.67 mM (14.9 mg/ml final concentration) • [1,3-diamino 2-propanol]=300 mM • Buffer: 20 mM Triethanolamine pH 8.6 • Glycerol 7.18 M • [TGase MTG P2]=0.39 μM then 1.17 μM at 5 hours

[1] = enhancing compound 7.18 M, TGase MTG P2 0.39 μM, FIG. 7

T1 sequence (P81453 77-407): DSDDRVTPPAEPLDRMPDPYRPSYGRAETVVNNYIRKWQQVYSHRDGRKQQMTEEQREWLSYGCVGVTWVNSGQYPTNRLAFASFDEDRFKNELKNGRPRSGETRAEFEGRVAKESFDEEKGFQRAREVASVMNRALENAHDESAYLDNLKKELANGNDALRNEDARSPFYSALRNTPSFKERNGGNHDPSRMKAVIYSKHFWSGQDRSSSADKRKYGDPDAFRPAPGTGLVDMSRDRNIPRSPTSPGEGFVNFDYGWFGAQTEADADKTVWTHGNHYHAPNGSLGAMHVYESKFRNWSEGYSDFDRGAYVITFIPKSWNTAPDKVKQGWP

## OCCCO [1,3 propanediol, reference compound]
1,3 propanediol 7.18 M, TGase MTG P2 0.39 μM, FIG. 7
  effect on the enzyme reaction: completely inhibited the reaction

## OCC(O)CO [Glycerol, glycerol]
  selectivity of the reaction: improved the selectivity of the reaction
[1]
  side products (pos.40-TA-hGH and di-transaminated hGH) formed: reduce the amount of side products
Glycerol 7.18 M, TGase MTG P2 0.39 μM then 1.17 μM at 5 hours, FIG. 8
  yield when more enzyme is added: can be increased

## CC(O)CO (stereo not drawn) [Propylene glycol, propylene glycol]
[1]
  yield, comparison of compounds of related structures: next highest yield

## OCCO [ethylene glycol]
  product yield, varying enzyme concentration: highest product yield
  yield of pos.141 TA-hGH with rising ethylene glycol concentration: increased yield
  yield, comparison of compounds of related structures: highest yield
pH 8.6
  maximum yield of the desired pos.141-hGH: 75%
